According to ChEMBL document CHEMBL4507268 (2021):

Experiments:
Settings in all cases: Compound concentration 1000.0 nM
[1] = tested on: Epidermal growth factor receptor (Homo sapiens), P00533 [UNDEFINED MUTATION]
[2] = target: T1, Ephrin type-B receptor 3 (Homo sapiens) (UniProt P54753)
T1 sequence (whole entry): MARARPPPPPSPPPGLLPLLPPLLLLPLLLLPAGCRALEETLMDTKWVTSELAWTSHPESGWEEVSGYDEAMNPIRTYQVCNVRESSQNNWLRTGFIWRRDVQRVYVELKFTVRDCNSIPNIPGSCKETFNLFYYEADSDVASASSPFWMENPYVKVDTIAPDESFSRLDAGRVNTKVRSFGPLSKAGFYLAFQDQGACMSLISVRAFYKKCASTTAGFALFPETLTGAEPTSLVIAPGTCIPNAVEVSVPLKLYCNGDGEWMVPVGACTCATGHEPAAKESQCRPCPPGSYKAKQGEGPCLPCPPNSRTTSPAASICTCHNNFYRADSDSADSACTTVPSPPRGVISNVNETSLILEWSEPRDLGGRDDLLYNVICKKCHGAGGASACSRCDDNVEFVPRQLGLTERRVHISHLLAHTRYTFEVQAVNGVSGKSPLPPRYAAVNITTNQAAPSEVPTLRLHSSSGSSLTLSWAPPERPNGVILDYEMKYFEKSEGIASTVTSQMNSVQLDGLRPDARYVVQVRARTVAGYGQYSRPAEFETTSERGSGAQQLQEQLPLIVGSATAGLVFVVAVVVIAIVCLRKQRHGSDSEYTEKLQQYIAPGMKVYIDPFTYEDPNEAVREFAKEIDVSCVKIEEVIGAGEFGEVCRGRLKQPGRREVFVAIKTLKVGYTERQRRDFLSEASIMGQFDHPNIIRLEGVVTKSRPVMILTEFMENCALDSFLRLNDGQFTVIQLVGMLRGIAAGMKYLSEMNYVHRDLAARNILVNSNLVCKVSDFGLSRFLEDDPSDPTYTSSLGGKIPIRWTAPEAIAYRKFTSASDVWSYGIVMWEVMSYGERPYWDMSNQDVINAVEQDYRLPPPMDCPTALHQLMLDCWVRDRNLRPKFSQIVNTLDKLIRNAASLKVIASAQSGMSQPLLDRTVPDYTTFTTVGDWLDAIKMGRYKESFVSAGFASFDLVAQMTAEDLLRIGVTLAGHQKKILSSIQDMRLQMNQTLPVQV

[3] = target: T2, Inhibitor of nuclear factor kappa-B kinase subunit beta (Homo sapiens) (UniProt O14920)
T2 sequence (whole entry): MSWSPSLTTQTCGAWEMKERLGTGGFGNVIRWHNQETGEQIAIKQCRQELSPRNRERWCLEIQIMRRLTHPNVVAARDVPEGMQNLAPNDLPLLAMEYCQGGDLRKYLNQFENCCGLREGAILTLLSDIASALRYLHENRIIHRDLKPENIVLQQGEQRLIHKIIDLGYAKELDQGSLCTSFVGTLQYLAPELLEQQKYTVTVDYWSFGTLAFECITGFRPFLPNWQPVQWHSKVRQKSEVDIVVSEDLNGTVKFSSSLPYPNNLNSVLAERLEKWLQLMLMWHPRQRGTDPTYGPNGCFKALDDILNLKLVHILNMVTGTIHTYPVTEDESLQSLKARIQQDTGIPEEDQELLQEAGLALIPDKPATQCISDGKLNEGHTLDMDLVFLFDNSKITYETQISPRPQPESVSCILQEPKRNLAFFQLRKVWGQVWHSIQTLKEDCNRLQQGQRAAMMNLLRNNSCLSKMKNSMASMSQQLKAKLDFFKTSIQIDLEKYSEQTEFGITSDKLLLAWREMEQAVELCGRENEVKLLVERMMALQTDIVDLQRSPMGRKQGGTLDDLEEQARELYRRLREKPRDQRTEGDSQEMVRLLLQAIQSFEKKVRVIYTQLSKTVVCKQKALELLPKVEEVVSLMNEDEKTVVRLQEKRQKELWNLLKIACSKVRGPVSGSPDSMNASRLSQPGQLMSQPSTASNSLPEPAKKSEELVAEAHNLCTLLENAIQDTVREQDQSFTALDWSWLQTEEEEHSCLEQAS

[4] = tested on: Mast/stem cell growth factor receptor Kit (Homo sapiens), P10721 [L576P]
[5] = target: Cyclin-dependent kinase 14 (Homo sapiens) (UniProt O94921)
[6] = target: Protein kinase C delta type (Homo sapiens) (UniProt Q05655)
[7] = target: T3, Dual specificity protein kinase TTK (Homo sapiens) (UniProt P33981)
T3 sequence (whole entry): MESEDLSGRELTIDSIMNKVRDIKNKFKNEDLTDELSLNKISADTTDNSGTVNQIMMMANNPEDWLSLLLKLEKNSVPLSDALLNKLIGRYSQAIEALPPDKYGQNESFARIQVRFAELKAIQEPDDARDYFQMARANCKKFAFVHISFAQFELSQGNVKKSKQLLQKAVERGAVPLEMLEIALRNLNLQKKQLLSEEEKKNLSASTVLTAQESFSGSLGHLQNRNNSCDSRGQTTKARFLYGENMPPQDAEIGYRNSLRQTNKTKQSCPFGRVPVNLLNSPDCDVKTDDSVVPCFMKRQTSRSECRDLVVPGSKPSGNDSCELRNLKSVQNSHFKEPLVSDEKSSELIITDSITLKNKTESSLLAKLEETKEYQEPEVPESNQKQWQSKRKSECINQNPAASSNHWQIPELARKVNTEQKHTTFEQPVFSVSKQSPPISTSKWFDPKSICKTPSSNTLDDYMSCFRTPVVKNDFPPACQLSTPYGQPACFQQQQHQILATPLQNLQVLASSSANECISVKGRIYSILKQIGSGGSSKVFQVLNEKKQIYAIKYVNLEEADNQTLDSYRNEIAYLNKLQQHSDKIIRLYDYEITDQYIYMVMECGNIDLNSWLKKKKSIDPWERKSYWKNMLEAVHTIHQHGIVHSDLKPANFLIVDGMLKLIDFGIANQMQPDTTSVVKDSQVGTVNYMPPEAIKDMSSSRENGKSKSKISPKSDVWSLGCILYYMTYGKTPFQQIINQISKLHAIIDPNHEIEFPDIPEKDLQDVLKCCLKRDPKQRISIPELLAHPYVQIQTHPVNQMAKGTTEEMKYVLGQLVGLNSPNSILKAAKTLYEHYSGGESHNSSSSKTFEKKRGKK

[8] = target: Non-receptor tyrosine-protein kinase TYK2 (Homo sapiens) (UniProt P29597)

Measured: residual activity

Sequence of Cyclin-dependent kinase 14 (Homo sapiens) (O94921 whole entry): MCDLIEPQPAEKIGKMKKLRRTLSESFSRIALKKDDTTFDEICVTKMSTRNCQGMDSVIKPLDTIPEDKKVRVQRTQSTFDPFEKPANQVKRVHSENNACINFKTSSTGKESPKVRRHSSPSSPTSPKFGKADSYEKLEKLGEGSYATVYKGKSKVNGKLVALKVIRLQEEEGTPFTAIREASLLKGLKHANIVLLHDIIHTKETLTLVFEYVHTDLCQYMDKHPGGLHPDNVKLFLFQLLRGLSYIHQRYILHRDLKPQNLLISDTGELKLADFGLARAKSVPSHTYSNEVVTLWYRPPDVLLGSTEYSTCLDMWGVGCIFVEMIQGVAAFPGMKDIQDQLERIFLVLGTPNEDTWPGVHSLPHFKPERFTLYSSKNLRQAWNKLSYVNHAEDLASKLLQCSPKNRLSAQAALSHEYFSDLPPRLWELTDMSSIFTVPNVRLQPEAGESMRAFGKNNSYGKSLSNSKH
Sequence of Epidermal growth factor receptor (Homo sapiens), P00533 [UNDEFINED MUTATION] (P00533 whole entry, looked up, change not shown): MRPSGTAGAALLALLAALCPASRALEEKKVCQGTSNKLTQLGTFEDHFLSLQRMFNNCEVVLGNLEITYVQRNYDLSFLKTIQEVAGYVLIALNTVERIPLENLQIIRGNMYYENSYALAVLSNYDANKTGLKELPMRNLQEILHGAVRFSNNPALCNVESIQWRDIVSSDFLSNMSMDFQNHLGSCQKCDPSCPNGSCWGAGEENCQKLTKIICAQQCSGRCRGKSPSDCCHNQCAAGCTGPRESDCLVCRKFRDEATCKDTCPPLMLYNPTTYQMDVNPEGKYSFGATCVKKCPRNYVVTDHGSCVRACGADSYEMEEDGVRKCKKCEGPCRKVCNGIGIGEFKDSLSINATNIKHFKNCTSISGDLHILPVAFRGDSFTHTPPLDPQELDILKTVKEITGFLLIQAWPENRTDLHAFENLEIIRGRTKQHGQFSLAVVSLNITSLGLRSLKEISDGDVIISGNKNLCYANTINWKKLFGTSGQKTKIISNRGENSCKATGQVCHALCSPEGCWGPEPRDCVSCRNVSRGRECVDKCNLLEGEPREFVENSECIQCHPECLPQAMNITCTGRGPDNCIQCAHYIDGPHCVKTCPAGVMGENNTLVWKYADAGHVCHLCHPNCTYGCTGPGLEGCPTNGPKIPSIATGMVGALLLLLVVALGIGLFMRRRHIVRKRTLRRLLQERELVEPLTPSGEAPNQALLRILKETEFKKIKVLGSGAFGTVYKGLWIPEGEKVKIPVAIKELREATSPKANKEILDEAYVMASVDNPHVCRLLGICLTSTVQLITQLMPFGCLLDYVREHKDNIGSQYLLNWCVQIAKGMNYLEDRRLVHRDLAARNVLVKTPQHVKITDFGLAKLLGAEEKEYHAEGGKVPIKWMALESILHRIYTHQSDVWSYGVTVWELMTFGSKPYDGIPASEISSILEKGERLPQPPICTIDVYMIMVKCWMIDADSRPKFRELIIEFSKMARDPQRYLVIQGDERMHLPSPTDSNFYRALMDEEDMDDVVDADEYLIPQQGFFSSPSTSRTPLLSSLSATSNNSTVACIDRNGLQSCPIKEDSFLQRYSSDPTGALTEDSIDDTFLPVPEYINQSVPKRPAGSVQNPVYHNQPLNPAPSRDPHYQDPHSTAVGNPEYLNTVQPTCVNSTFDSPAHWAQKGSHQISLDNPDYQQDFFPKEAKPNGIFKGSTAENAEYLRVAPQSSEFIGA
Sequence of Protein kinase C delta type (Homo sapiens) (Q05655 whole entry, looked up): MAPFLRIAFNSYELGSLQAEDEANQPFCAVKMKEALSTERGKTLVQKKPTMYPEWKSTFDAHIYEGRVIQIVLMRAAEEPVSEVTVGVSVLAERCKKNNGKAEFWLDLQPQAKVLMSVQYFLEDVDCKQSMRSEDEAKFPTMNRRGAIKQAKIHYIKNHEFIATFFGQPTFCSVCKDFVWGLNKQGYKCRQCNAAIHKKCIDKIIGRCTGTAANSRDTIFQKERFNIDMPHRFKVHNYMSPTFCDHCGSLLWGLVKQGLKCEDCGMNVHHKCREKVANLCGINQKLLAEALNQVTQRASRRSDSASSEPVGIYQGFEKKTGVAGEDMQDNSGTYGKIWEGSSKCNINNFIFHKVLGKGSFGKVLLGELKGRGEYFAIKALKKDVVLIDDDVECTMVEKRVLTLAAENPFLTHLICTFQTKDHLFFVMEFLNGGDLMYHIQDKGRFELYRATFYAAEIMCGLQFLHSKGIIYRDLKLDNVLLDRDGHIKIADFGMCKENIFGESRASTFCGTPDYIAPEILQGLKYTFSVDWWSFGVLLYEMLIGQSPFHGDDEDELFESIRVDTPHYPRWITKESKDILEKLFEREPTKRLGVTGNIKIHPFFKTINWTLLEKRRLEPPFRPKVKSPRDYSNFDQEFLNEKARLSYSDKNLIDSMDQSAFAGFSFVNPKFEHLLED
Sequence of Non-receptor tyrosine-protein kinase TYK2 (Homo sapiens) (P29597 whole entry): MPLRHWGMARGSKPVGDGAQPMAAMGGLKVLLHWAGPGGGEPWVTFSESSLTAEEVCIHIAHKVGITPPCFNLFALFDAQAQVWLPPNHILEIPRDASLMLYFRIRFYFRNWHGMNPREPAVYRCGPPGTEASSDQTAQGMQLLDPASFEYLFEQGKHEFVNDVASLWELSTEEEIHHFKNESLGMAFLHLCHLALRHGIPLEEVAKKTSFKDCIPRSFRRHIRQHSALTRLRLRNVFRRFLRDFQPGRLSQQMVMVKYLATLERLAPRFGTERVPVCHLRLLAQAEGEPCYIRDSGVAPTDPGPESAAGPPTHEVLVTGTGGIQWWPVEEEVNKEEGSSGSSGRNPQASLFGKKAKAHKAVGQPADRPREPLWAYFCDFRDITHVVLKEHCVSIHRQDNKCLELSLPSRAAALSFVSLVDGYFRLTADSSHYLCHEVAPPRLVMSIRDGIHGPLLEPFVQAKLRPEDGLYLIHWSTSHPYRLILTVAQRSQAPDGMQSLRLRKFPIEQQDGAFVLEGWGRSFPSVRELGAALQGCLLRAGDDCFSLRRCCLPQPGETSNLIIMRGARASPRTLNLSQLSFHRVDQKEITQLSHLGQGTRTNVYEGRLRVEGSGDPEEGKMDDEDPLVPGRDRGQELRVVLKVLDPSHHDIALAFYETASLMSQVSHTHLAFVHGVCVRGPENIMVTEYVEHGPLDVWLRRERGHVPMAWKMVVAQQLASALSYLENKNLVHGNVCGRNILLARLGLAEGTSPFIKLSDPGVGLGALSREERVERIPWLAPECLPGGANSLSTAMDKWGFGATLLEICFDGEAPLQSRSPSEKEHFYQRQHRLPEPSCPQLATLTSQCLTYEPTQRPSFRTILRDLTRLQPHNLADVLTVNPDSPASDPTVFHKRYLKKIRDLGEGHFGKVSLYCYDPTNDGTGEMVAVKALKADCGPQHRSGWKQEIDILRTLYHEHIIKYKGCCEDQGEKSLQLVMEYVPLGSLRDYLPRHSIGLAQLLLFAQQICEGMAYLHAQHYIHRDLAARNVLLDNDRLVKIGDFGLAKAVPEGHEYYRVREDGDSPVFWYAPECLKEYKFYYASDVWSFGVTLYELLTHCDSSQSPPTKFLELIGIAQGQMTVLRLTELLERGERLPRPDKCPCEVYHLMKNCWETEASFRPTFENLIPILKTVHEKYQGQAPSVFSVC
Sequence of Mast/stem cell growth factor receptor Kit (Homo sapiens), P10721 [L576P] (P10721 whole entry L576P): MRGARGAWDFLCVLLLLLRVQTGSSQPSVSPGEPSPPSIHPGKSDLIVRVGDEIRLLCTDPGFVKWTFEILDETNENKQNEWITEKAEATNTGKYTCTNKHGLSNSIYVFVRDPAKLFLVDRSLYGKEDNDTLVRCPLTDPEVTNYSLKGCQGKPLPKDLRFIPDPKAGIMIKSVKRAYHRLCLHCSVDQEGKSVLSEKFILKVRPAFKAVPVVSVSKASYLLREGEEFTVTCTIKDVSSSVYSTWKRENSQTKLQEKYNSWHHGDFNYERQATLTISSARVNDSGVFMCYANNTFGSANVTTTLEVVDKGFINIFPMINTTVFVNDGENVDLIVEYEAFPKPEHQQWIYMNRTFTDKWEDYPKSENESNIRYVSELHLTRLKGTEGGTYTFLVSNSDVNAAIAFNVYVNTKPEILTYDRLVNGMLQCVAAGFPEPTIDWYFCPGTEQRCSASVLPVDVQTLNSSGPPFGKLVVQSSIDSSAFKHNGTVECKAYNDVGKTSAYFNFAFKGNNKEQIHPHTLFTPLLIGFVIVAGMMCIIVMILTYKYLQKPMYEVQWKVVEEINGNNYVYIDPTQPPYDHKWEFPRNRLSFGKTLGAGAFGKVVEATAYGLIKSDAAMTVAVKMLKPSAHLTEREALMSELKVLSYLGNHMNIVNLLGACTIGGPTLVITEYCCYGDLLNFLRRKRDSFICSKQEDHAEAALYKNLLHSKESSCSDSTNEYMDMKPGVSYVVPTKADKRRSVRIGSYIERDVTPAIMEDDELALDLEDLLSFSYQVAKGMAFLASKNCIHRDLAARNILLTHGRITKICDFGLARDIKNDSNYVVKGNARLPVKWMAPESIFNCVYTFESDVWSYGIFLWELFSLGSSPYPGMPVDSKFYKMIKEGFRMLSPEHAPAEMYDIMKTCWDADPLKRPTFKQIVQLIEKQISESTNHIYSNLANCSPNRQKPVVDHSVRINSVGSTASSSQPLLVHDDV

Cc1nc(C2CCN(C(=O)c3ccc(OC(F)(F)F)cc3N)CC2)c2ncc(N3CCN(C)CC3)cc2n1 [BAY-693]
inactive: [1] 100% | [2] 100% | [3] 78% | [4] 87% | [5] 100% | [6] 100% | [7] 100% | [8] 100%

CN1CCN(c2cnc3c(C4CCN(C(=O)c5ccc(OC(F)(F)F)cc5N)CC4)ncnc3c2)CC1 [BAY-885]
inactive: [1] 100% | [2] 100% | [3] 100% | [4] 95% | [5] 100% | [6] 100% | [7] 100% | [8] 93%
